GI50 and TGI data for 3 compounds are collected here from PubChem BioAssay (NCI).

Some test systems named below: MDA-N; DMS 114 small cell lung; LXFL 529 NSCLC; KM20L2 colon; M19-MEL melanoma; DLD-1 colon; P388/ADR leukemia; P388 leukemia; XF 498 CNS; RXF-631 renal; SNB-78 CNS.
What all share (assay): NCI tumour cell line growth inhibition, 48 h

Where “and” joins values, the source holds several entries; their conditions need not be identical. Equal values may be shown once.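 Step 1: Grow cells in 96-well plates. Step 2: Expose to compound for 48 hours at 5 concentrations. Step 3: Interpolate endpoints linearly; if unreached, use highest concentration. GI50 is the concentration that inhibits growth by half. TGI is the concentration that stops growth completely.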 Some results are limits rather than exact numbers.

Turning to `C/C=C1\C[C@@H]2C(OC)Nc3cc(O)c(OC)cc3C(=O)N2C1` (some centres not stated), the GI50 in the experiment with MDA-N was 14 nM; in the experiment with XF 498 CNS, 1.91 nM. Besides, the TGI is 31.9 nM and < 16.3 nM in the experiment on MDA-N; 3.5 nM in the experiment with DMS 114 small cell lung; 209 nM in the experiment on LXFL 529 NSCLC; 90.9 nM and 45 nM with KM20L2 colon; 41.3 nM and 10.1 nM in the experiment with M19-MEL melanoma; 20000 nM in the experiment with DLD-1 colon. For the same compound, the TGI in the experiment on P388/ADR leukemia was 10.4 nM; with P388 leukemia, below 12.3 nM; with XF 498 CNS it was 3.98 nM.

`COc1cc2c(cc1OC)C1(c3ccccc3)ON=C(c3ccccc3)N1CS2` (configuration not stated): the TGI in the experiment with DMS 114 small cell lung, in the experiment on LXFL 529 NSCLC, in the experiment on KM20L2 colon, in the experiment on M19-MEL melanoma, with DLD-1 colon and in the experiment with RXF-631 renal was above 100000 nM in each case. For the same compound, the TGI with XF 498 CNS and in the experiment on SNB-78 CNS was above 100000 nM in each case.

In the case of `O=c1[nH]c(=O)n(C2OC(CO)C(O)C2O)cc1OCc1ccccc1` (configuration not stated), the TGI in the experiment on DMS 114 small cell lung was above 72200 nM; in the experiment on LXFL 529 NSCLC, above 100000 nM; in the experiment with KM20L2 colon, above 100000 nM; in the experiment with M19-MEL melanoma it was above 100000 nM; in the experiment with DLD-1 colon it was above 78000 nM; in the experiment on RXF-631 renal, above 100000 nM. Moreover, the TGI in the experiment on XF 498 CNS and with SNB-78 CNS was above 100000 nM in each case.
